Data taken from patent US20080159962A1, “Use of Inhibitors of the Renin-Angiotensin System for the Treatment of Lung Injuries” (priority 2005, published 2008).
Read-outs that look alike come from different tables or passages of the source.

Legend:
Type in all cases: in vivo
AT1R [1] = target: T1, AT1R (Mus musculus, UniProt P29754); assay: AT1R inhibitor study in acid-induced ALI of ace2 KO mice; conditions: acid-treated ace2 KO mice
Method: (§1) Experimental murine ALI models: For acid aspiration-induced ALI, 2.5-3 month old mice were anaesthetized with ketamin (75 mg/kg) and xylazine (20 mg/kg) i.p., tracheostomized and ventilated with a volume control constant flow ventilator (Voltek Enterprises, Canada). Volume recruitment manoeuvre (VRM) (25 cmH2O, 3 sec) was performed to standardize volume history and measurements were made as baseline. After intratracheal instillation of HCl (pH=1.5; 2 ml/kg), followed by a VRM (35 cmH2O, 3 seconds), animals were ventilated for 3 hrs (FIO2 1.0). Saline-treated groups served as controls. […] All animals were monitored throughout an 18-hrs recovery period. […] In all experimental ALI models, total PEEP (PEEPt) and plateau pressure (Pplat) were measured at the end of expiratory and inspiratory occlusion, respectively, and elastance was calculated as Pplat minus PEEPt)/VT every 30 minutes during the ventilation periods. […]
Assessment of blood oxygenation, pulmonary oedema, and pulmonary vascular permeability: At the end of the experiments, blood samples were obtained from the left heart ventricle and PaO2 was measured (Ciba-Corning Model 248, Bayer, Leverkusen, Germany) to assess arterial blood oxygenation as an indicator for respiratory failure. To assess pulmonary oedemas, the lung wet/dry weight ratios were calculated. […]

AT1R [2] = target: T1, AT1R
BK2 = target: T2, BK2 (Mus musculus, UniProt P32299); assay: Bradykinin receptor inhibitor study (BK2) in acid aspiration-induced ALI of ace2 KO mice; conditions: acid-treated ace2 KO mice, 1.5 mg/kg i.p. 30 min before surgical procedures, 3 hrs (FIG. 17)
T2 construct: from tissue; host or cells: live ace2 KO mice, lung elastance read-out
T2 sequence (P32299 1-392): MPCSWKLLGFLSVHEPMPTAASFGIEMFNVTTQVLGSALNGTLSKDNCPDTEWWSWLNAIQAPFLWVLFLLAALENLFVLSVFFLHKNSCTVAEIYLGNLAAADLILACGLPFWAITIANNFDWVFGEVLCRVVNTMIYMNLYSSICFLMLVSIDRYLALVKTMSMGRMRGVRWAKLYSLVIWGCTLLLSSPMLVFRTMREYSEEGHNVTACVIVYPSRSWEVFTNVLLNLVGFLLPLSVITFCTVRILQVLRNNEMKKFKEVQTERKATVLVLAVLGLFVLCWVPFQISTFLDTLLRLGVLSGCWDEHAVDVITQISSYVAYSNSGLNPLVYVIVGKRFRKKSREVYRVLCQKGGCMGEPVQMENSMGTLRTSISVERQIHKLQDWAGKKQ
Method: Murine acid aspiration-induced lung injury model: For acid aspiration-induced ALI, 2.5-3 month old mice were anaesthetized with ketamin (75 mg/kg) and xylazine (20 mg/kg) i.p., tracheostomized and ventilated with a volume control constant flow ventilator (Voltek Enterprises). Volume recruitment manoeuvre (VRM) (25 cmH2O, 3 sec) was performed to standardize volume history and measurements were made as baseline. After intratracheal instillation of HCl (pH=1.5; 2 ml/kg), followed by a VRM (35 cmH2O, 3 seconds), animals were ventilated for 3 hrs (FIO2 1.0). Total PEEP (PEEPt) and plateau pressure (Pplat) were measured at the end of expiratory and inspiratory occlusion, respectively, and elastance was calculated as Pplat minus PEEPt)/VT every 30 minutes during the ventilation periods.
Bradykinin receptors inhibitor studies: Ace2 KO mice (2.5-3 months old) received the BK1 inhibitor (des Arg HOE, Sigma, 1.5 mg/kg), the BK2 inhibitor (HOE 140, Sigma, 1.5 mg/kg), or control vehicle i.p. 30 min before surgical procedures. After HCl instillation, animals were randomized into groups: (1) ace2 KO, acid, vehicle control; (2) ace2 KO, acid, BK1 inhibitor; (3) ace2 KO, acid, BK2 inhibitor. Animals were then ventilated for 3 hrs and analyzed as above.

AT2R = target: T3, AT2R (Mus musculus, UniProt P35374); assay: AT2R inhibitor study in acid-induced ALI of ace2 KO mice; conditions: acid-treated ace2 KO mice, 15 mg/kg i.p., 3 hrs (FIG. 10b)
T3 construct: from tissue; host or cells: live ace2 KO mice, lung elastance read-out
T3 sequence (P35374 1-363): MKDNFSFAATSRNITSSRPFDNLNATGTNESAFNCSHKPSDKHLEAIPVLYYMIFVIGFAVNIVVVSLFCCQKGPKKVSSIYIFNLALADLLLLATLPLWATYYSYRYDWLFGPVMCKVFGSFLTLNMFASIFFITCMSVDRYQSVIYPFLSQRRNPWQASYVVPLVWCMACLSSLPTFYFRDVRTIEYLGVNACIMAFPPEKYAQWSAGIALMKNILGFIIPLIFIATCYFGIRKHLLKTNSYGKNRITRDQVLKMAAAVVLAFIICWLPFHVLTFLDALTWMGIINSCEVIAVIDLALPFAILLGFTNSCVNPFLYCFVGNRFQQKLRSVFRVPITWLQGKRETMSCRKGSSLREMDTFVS
Method: as §1
AT1R/AT2R inhibitor studies: Mice (2.5-3 months old) received the AT1R inhibitor Losartan (15 mg/kg), the AT2R inhibitor PD123.319 (15 mg/kg), or control vehicle i.p. 30 min before surgical procedures. […] Animals were then ventilated for 3 hrs and analyzed as above.

T1 sequence (P29754 whole entry): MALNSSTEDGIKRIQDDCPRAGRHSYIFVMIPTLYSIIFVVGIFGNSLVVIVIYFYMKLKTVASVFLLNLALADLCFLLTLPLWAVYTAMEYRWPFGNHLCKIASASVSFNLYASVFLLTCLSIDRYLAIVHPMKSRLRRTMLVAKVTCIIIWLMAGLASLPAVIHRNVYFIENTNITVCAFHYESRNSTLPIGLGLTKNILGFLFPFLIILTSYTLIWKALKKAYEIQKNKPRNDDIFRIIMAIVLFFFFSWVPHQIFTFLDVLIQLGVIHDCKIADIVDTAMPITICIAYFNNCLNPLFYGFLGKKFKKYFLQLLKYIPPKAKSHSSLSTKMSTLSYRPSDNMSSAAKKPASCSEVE

SMILES: CCCCc1nc(Cl)c(CO)n1Cc1ccc(-c2ccccc2-c2nn[nH]n2)cc1 [Losartan]
- severity of ALI (lung elastance) (AT1R [1]; 15 mg/kg i.p. 30 min before surgical procedures, 3 hrs (FIG. 10b)): attenuated the severity of ALI
- acid-induced pulmonary oedema (wet to dry weight ratio) (AT1R [1]; 15 mg/kg, 3 hrs (FIG. 16b)): attenuated acid-induced pulmonary oedema
- acute severe lung injury (lung elastance) (AT1R [2]; acid plus Spike-Fc challenged WT mice, 15 mg/kg (FIG. 5c)): attenuates SARS Spike-mediated severe acute lung injury
- acute severe lung injury (lung elastance) (AT1R [2]; mouse, in vivo): attenuated acute severe lung injury
- pulmonary oedema (wet to dry weight ratio) (AT1R [2]; mouse, in vivo): attenuated pulmonary oedema

SMILES: NC(N)=NCCC[C@@H](N)C(=O)N[C@@H](CCCN=C(N)N)C(=O)N1CCC[C@H]1C(=O)N1C[C@H](O)C[C@H]1C(=O)NCC(=O)N[C@@H](Cc1cccs1)C(=O)N[C@@H](CO)C(=O)N1Cc2ccccc2C[C@@H]1C(=O)N1[C@H](C(=O)N[C@@H](CCCN=C(N)N)C(=O)O)C[C@@H]2CCCC[C@@H]21 [BK2 inhibitor, DArg[Hyp^3,Thi^5,DTic^7,Oic^8]-bradykinin]
- lung failure assessed by pulmonary elastance (BK2): improved the lung failure

SMILES: Cc1cc(Cn2cnc3c2C[C@@H](C(=O)O)N(C(=O)C(c2ccccc2)c2ccccc2)C3)ccc1N(C)C [PD123.319]
- severe acute lung injury phenotypes (lung elastance) (AT2R): had no apparent effect
